{"source": "patent US11253517B2", "about": "“Small molecule regulators of steroid receptor coactivators and methods of use thereof” (BAYLOR COLLEGE OF MEDICINE, priority 2016, dated 2022)", "experiment_in_all_cases": "Kinase-Glo Luminescent Kinase Assay", "type_in_all_cases": "biochemical", "key": {"[1]": {"biological_target": "T1, IRAK4 (Homo sapiens, UniProt Q9NWZ3)", "T1 construct": "purchased Promega", "T1 sequence (Q9NWZ3 1-460)": "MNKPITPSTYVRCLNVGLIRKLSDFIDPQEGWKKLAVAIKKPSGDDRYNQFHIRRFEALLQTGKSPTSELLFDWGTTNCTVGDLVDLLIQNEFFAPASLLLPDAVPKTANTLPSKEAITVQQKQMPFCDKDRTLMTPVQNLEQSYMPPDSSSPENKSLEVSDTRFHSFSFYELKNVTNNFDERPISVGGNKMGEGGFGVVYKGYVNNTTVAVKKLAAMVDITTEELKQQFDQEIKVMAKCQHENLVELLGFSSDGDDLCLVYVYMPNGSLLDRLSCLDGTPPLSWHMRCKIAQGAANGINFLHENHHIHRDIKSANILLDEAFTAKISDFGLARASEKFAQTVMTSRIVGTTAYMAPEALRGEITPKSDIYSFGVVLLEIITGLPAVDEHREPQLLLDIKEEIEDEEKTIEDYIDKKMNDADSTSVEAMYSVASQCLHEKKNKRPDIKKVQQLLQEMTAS", "method": "(§1) SI-12 was also tested for its ability to disrupt kinase activity. The effects of the compound were tested on a panel of 24 kinases using a Kinase-Glo Luminescent Kinase Assay system (Promega; Madison, Wis.). SI-12 was tested, at concentrations of 1000 nM, 50 nM, and 5 nM, for its ability to interfere with recombinant kinases in the assay system. The amount of ATP to ADP conversion in the presence of SI-12 was compared to a DMSO vehicle control. The values shown in Table 3 represent the percentage of kinase activity compared to a DMSO vehicle control.\n(§2) In Table 3, “−” represents less than 20% inhibition; “+” represents from 20% to 40% inhibition; “++” represents from 40% to 60% inhibition; and “+++” represents greater than 60% inhibition."}, "[2]": {"biological_target": "T2, CAMK4 (Homo sapiens, UniProt Q16566)", "T2 construct": "purchased Promega", "method": "as §1, §2"}, "[3]": {"biological_target": "T3, Aurora A (Homo sapiens, UniProt O14965)", "T3 construct": "purchased Promega", "T3 sequence (O14965 1-403)": "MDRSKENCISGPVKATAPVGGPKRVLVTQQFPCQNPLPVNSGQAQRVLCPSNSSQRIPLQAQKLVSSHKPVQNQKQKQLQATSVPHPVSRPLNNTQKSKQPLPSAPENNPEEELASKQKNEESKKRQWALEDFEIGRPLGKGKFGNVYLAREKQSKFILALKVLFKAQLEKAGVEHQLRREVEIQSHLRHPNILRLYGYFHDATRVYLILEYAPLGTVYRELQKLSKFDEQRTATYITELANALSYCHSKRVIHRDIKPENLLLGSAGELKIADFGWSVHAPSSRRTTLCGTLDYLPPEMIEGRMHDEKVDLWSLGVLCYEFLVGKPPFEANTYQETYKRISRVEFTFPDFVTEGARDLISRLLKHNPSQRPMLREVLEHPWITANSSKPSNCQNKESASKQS", "method": "as §1, §2"}, "[4]": {"biological_target": "T4, ROCK1 (Homo sapiens, UniProt Q13464)", "T4 construct": "purchased Promega", "method": "as §1, §2"}, "[5]": {"biological_target": "T5, AKT1 (Homo sapiens, UniProt P31749)", "T5 construct": "purchased Promega", "method": "as §1, §2"}, "[6]": {"biological_target": "T6, P38A (Homo sapiens, UniProt Q16539)", "T6 construct": "purchased Promega", "T6 sequence (Q16539 2-360 limits assumed)": "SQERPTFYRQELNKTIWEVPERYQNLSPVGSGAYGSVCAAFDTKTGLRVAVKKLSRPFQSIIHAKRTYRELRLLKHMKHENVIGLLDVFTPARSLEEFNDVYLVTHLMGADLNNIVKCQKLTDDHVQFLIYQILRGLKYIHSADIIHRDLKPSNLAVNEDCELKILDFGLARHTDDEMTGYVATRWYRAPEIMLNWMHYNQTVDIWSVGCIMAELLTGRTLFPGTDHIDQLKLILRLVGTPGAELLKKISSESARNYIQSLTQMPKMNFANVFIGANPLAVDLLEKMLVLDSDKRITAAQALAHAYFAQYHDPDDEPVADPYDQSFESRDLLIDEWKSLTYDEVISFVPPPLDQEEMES", "method": "as §1, §2"}, "[7]": {"biological_target": "T7, CK2a 1 (Homo sapiens, UniProt P68400)", "T7 construct": "purchased Promega", "method": "as §1, §2"}, "[8]": {"biological_target": "T8, PKCa (Homo sapiens, UniProt P17252)", "T8 construct": "purchased Promega", "method": "as §1, §2"}, "[9]": {"biological_target": "T9, CK1y1 (Homo sapiens, UniProt Q9HCP0)", "T9 construct": "purchased Promega", "method": "as §1, §2"}, "[10]": {"biological_target": "T10, MINK1 (Homo sapiens, UniProt Q8N4C8)", "T10 construct": "purchased Promega", "method": "as §1, §2"}, "[11]": {"biological_target": "T11, GSK3B (Homo sapiens, UniProt P49841)", "T11 construct": "purchased Promega", "method": "as §1, §2"}, "[12]": {"biological_target": "T12, CDK2/CyclinE1 (Homo sapiens, UniProt P24941)", "T12 construct": "purchased Promega", "method": "as §1, §2"}}, "data": [{"compound": "CC(=NNc1nc2cc(F)c(F)cc2n1C)c1ccc(F)cn1", "note": "[SI-12]", "values": [{"measurement": "IRAK4 kinase inhibition", "setting": "[1]; 5 nM", "result": "− (less than 20% inhibition)"}, {"measurement": "IRAK4 kinase inhibition", "setting": "[1]; 50 nM", "result": "− (less than 20% inhibition)"}, {"measurement": "IRAK4 kinase inhibition", "setting": "[1]; 1000 nM", "result": "− (less than 20% inhibition)"}, {"measurement": "CAMK4 kinase inhibition", "setting": "[2]; 5 nM", "result": "− (less than 20% inhibition)"}, {"measurement": "CAMK4 kinase inhibition", "setting": "[2]; 50 nM", "result": "− (less than 20% inhibition)"}, {"measurement": "CAMK4 kinase inhibition", "setting": "[2]; 1000 nM", "result": "− (less than 20% inhibition)"}, {"measurement": "Aurora A kinase inhibition", "setting": "[3]; 5 nM", "result": "− (less than 20% inhibition)"}, {"measurement": "Aurora A kinase inhibition", "setting": "[3]; 50 nM", "result": "− (less than 20% inhibition)"}, {"measurement": "Aurora A kinase inhibition", "setting": "[3]; 1000 nM", "result": "− (less than 20% inhibition)"}, {"measurement": "ROCK1 kinase inhibition", "setting": "[4]; 5 nM", "result": "+ (from 20% to 40% inhibition)"}, {"measurement": "ROCK1 kinase inhibition", "setting": "[4]; 50 nM", "result": "+ (from 20% to 40% inhibition)"}, {"measurement": "ROCK1 kinase inhibition", "setting": "[4]; 1000 nM", "result": "+ (from 20% to 40% inhibition)"}, {"measurement": "AKT1 kinase inhibition", "setting": "[5]; 5 nM", "result": "− (less than 20% inhibition)"}, {"measurement": "AKT1 kinase inhibition", "setting": "[5]; 50 nM", "result": "− (less than 20% inhibition)"}, {"measurement": "AKT1 kinase inhibition", "setting": "[5]; 1000 nM", "result": "− (less than 20% inhibition)"}, {"measurement": "P38A kinase inhibition", "setting": "[6]; 5 nM", "result": "− (less than 20% inhibition)"}, {"measurement": "P38A kinase inhibition", "setting": "[6]; 50 nM", "result": "− (less than 20% inhibition)"}, {"measurement": "P38A kinase inhibition", "setting": "[6]; 1000 nM", "result": "− (less than 20% inhibition)"}, {"measurement": "CK2a 1 kinase inhibition", "setting": "[7]; 5 nM", "result": "− (less than 20% inhibition)"}, {"measurement": "CK2a 1 kinase inhibition", "setting": "[7]; 50 nM", "result": "− (less than 20% inhibition)"}, {"measurement": "CK2a 1 kinase inhibition", "setting": "[7]; 1000 nM", "result": "− (less than 20% inhibition)"}, {"measurement": "PKCa kinase inhibition", "setting": "[8]; 5 nM", "result": "− (less than 20% inhibition)"}, {"measurement": "PKCa kinase inhibition", "setting": "[8]; 50 nM", "result": "− (less than 20% inhibition)"}, {"measurement": "PKCa kinase inhibition", "setting": "[8]; 1000 nM", "result": "− (less than 20% inhibition)"}, {"measurement": "CK1y1 kinase inhibition", "setting": "[9]; 5 nM", "result": "− (less than 20% inhibition)"}, {"measurement": "CK1y1 kinase inhibition", "setting": "[9]; 50 nM", "result": "− (less than 20% inhibition)"}, {"measurement": "CK1y1 kinase inhibition", "setting": "[9]; 1000 nM", "result": "− (less than 20% inhibition)"}, {"measurement": "MINK1 kinase inhibition", "setting": "[10]; 5 nM", "result": "− (less than 20% inhibition)"}, {"measurement": "MINK1 kinase inhibition", "setting": "[10]; 50 nM", "result": "− (less than 20% inhibition)"}, {"measurement": "MINK1 kinase inhibition", "setting": "[10]; 1000 nM", "result": "− (less than 20% inhibition)"}, {"measurement": "GSK3B kinase inhibition", "setting": "[11]; 5 nM", "result": "− (less than 20% inhibition)"}, {"measurement": "GSK3B kinase inhibition", "setting": "[11]; 50 nM", "result": "− (less than 20% inhibition)"}, {"measurement": "GSK3B kinase inhibition", "setting": "[11]; 1000 nM", "result": "− (less than 20% inhibition)"}, {"measurement": "CDK2/CyclinE1 kinase inhibition", "setting": "[12]; 5 nM", "result": "− (less than 20% inhibition)"}, {"measurement": "CDK2/CyclinE1 kinase inhibition", "setting": "[12]; 50 nM", "result": "− (less than 20% inhibition)"}, {"measurement": "CDK2/CyclinE1 kinase inhibition", "setting": "[12]; 1000 nM", "result": "− (less than 20% inhibition)"}]}]}
